# Data reported in patent publication US6146628A, “Biotherapeutic agents comprising recombinant PAP and PAP mutants” (priority 1995, dated 2000).
# Like-named read-outs stand apart in the source and are kept apart here.
# Columns and labels:
# clinical HIV-1 isolates = test: In vitro susceptibility of clinical HIV-1 isolates to zidovudine (IC50); type: cell-based
# Description: (§1) A total of 22 clinical HIV-1 isolates were studied, including 8 isolates from four seropositive asymptomatic individuals, 6 isolates from three patients with the AIDS-related complex, and 8 isolates from four patients with AIDS (two pairs of zidovudine-resistant and zidovudine-susceptible reference isolates were also included in this group). Erice et al., Antimicrob. Ag. Chemother., 37, 835 (1993). Fifteen isolates were from untreated individuals, and seven isolates were obtained after 24 to 104 weeks of treatment with zidovudine, alone or alternating with zalcitabine. […] The mean αCD4-PAP IC50 s in this group were 11×10^-3 nM (range, 2.5×10^-3 to 25×10^-3 nM) for isolates from zidovudine-untreated individuals and 9×10^-3 nM for the isolate obtained after 48 weeks of zidovudine therapy. […] The mean αCD4-PAP values in this group were 137×10^-3 nM (range, 39×10^-3 to 212×10^-3 nM) for isolates from untreated individuals and 19×10^-3 nM (range, 2×10^-3 to 42×10^-3 nM) for isolates from treated patients. […] The mean αCD4-PAP values were 43×10^-3 nM for the 17 isolates susceptible to zidovudine and 19×10^-3 nM for the 5 isolates that were resistant to zidovudine. All of the HIV-1 isolates studied had IC50 s greater than 0.5 nM for unconjugated PAP, the αCD19-PAP immunoconjugate, and monoclonal antibody αCD4. In 18 αCD4-PAP experiments, cell viability ranged from 97.5% (for cells not exposed to the immunoconjugate)to 87.2% (for cells exposed to 5 nM αCD4-PAP). Cell viabilities in 22 zidovudine susceptible assays ranged from 90.9% (cells not exposed to zidovudine) to 90.75% (cells exposed to 10,000 mM zidovudine). […]
# The in vitro susceptibility of clinical HIV-1 isolates to the PAP, PAP mutants, and anti-CD4 PAP immunoconjugates will be measured and compared using an RT inhibition assay, as described by Schwartz et al., cited supra. In brief, 5×10^6 PHA-stimulated seronegative donor peripheral blood mononuclear cells will be infected with HIV-1 by incubation in 1 mL of a stock virus preparation for 3 h at 37° C./5% CO2. After infection, cells will be transferred to 96-well tissue culture plates (40 μL/well in triplicate wells) containing different concentrations of PAP or αCD4 PAP diluted in RPMI 1640 supplemented with 20% fetal calf serum, 5% interleukin 2 (Cellular Products), 160 U/mL penicillin, and 160 μg/mL streptomycin. αCD4 PAP treatment will continue for 5 days to mimic the FDA-approved clinical protocol of the ongoing phase II PAP immunoconjugate trials for treatment of B-lineage lymphoid malignancies (BB-IND #3864). At the end of the incubation period, culture supernatants will be removed and assayed for RT activity using the method of Schwartz and colleagues. Schwartz et al., cited supra. IC50 values (concentration of drug needed to reduce RT activity by 50%) will be calculated from the RT activities of untreated versus treated samples using the SAS Regression Analysis Program (SAS Institute, Cary, N.C.). ZDV resistance will be defined as an ZDV-IC50value of greater than 1 μM. Standard statistical methods will be used including Student's t-tests to compare the αCD4 PAP sensitivity of ZDV-resistant and ZDV-sensitive HIV-1 isolates. All computations will be performed using an updated statistics program for the Macintosh (Statworks Statistics Program, Cricket Software, Philadelphia, Pa.).
# in vitro = type: cell-based; conditions: cells exposed to zidovudine; 22 assays; 90.9% for cells not exposed; read-out: cell viability
# Description: as §1, with “αCD4.” for “αCD4. In 18 αCD4-PAP experiments, cell viability ranged from 97.5% (for cells not exposed to the immunoconjugate)to 87.2% (for cells exposed to 5 nM αCD4-PAP). Cell viabilities in 22 zidovudine susceptible assays ranged from 90.9% (cells not exposed to zidovudine) to 90.75% (cells exposed to 10,000 mM zidovudine).”
# [1] = system: clinical HIV-1 strains (AT-101, AT-328, AT-332); type: in vivo, Hu-PBL-SCID mice
# Description: Hu-PBL-SCID mice were generated by reconstituting SCID mice by intraperitoneal injection of 10×10^6 peripheral blood mononuclear cells from a single EBV-seronegative volunteer donor. Two weeks after inoculation of cells, mice were challenged by intraperitoneal injection of 1.47.-7×10^4 median tissue culture infectious doses (TCID50) of cell free virus. Three different clinical HIV-1 strains (AT-101, AT-328, AT-332) were used. […] SCID mice were infected with HIV-1 isolates in a Biosafety Level 3 containment facility and all manipulations were performed in a biosafety cabinet. Non-toxic doses of anti-CD4-PAP (20% -50% of LD10) were administered intraperitoneally by injecting half of the total dose as a bolus and delivering the remainder i.p. over 2 weeks using Alzet micro-osmotic pumps. […] Two weeks after infection with HIV-1, mice were electively killed and fresh peritoneal lavage cells as well as spleen cells were isolated, cocultured with phytohemagglutinin(PHA)-stimulated human peripheral blood mononuclear cells from an HIV-1 antibody negative donor, and culture supernatants were tested every 3-4 days for a maximum of 28 days for the presence of HIV-1 antigen with a commercially available enzyme immunoassay (Abbott Laboratories, North Chicago, Ill.) that detects primarily the core p24 antigen of HIV-1, as previously described by Goudsmit et al. in J. Infectious Diseases, 155, 558 (1987). In addition to this culture method, we also isolated the DNA from the peritoneal lavage cells as well as splenocytes for detection of HIV-1 DNA by PCR amplification of a 115 b.p. sequence in the gag region of the HIV-1 genome using two 29-base oligonucleotide primers, SK38 and SK39, that flank the region to be amplified. […] DNA samples were also examined for the presence of human DNA by PCR amplification of a 110-bp fragment from the first exon of the human β-globin gene using two 20-base oligonucleotide primers, PCO3 and PCO4, that flank the region to be amplified, as previously described in detail by Chelstrom et al. Blood, 84, 20 (1994). […]
# [2] = ZDV in the water at 1 mg/mL, of the remaining 7 of 10 mice
structure (smiles),measurement,setting,value
"Cc1cn([C@H]2C[C@H](N=[N+]=[N-])[C@@H](CO)O2)c(=O)[nH]c1=O [zidovudine, 3'-azido-3'-deoxythymidine]",IC50,"clinical HIV-1 isolates; Human immunodeficiency virus 1, one resistant isolate, IC50 could not be calculated",> 4000 nM
same,IC50,"clinical HIV-1 isolates; Human immunodeficiency virus 1, read-out: mean IC50, overall, 5 isolates resistant to zidovudine",3720 nM
same,IC50,"clinical HIV-1 isolates; Human immunodeficiency virus 1, read-out: mean IC50, overall, 17 isolates susceptible to zidovudine",117 nM
same,IC50,"clinical HIV-1 isolates; Human immunodeficiency virus 1, read-out: mean zidovudine IC50, AIDS-related complex, four zidovudine susceptible isolates",106 nM
same,IC50,"clinical HIV-1 isolates; Human immunodeficiency virus 1, read-out: mean zidovudine IC50, isolates from seropositive asymptomatic, zidovudine-untreated patients",150 nM
same,IC50,"clinical HIV-1 isolates; Human immunodeficiency virus 1, read-out: mean zidovudine IC50, patients with AIDS, five zidovudine susceptible strains",105 nM
same,IC50,"clinical HIV-1 isolates; Human immunodeficiency virus 1, read-out: mean zidovudine IC50, strains from zidovudine-treated patients (7 isolates, 24 to 104 weeks of treatment)",2500 nM
same,IC50,"clinical HIV-1 isolates; Human immunodeficiency virus 1, read-out: mean zidovudine IC50, strains from zidovudine-untreated individuals (15 isolates)",126 nM
same,IC50,"clinical HIV-1 isolates; Human immunodeficiency virus 1, read-out: zidovudine IC50, one isolate from a seropositive asymptomatic individual after 48 weeks of zidovudine therapy",14 nM
same,IC50,"clinical HIV-1 isolates; Human immunodeficiency virus 1, read-out: zidovudine IC50 range, AIDS-related complex, four zidovudine susceptible isolates",24 to 150 nM
same,IC50,"clinical HIV-1 isolates; Human immunodeficiency virus 1, read-out: zidovudine IC50 range, isolates from seropositive asymptomatic, zidovudine-untreated patients",1 to 607 nM
same,IC50,"clinical HIV-1 isolates; Human immunodeficiency virus 1, read-out: zidovudine IC50 range, patients with AIDS, five zidovudine susceptible strains",44 to 166 nM
same,IC50,"clinical HIV-1 isolates; Human immunodeficiency virus 1, read-out: zidovudine IC50 range, strains from zidovudine-treated patients (7 isolates)",14 to 6500 nM
same,IC50,"clinical HIV-1 isolates; Human immunodeficiency virus 1, read-out: zidovudine IC50 range, strains from zidovudine-untreated individuals (15 isolates)",1 to 607 nM
same,IC50,"clinical HIV-1 isolates; Human immunodeficiency virus 1, read-out: zidovudine IC50s, AIDS-related complex, two resistant isolates obtained after 52 weeks of therapy",1710 to 2140 nM
same,susceptibility to zidovudine,"clinical HIV-1 isolates; patients with AIDS, three isolates after 24 to 104 weeks of zidovudine, alone or alternating with zalcitabine",highly resistant to zidovudine
same,viability,in vitro,90.8%
same,HIV-1 negative mice,"[1]; ZDV in the water at 1 mg/mL (average 200 mg/kg/day), two weeks after infection, culture and PCR",3 of 10
same,mice culture-negative but PCR-positive,[1]; [2],3
same,mice culture-positive and PCR positive,[1]; [2],4
